Assays:
[1] = German Published patent application No. 1,231,705 and 1,249,281; cited from earlier work
[2] = tested on: running activity of mice pre-treated with α-amphetamine sulphate; assay: Inhibition of running activity of mice pre-treated with α-amphetamine sulphate (Table III, c); format: in vivo; settings: Mus musculus, ip, 3 h, 5 mg/kg α-amphetamine sulphate, 180 minutes; for inhibition in vivo at 25 mg/kg: 25mg/kg i/p, read-out: c % inhibition of motility in the treadwheel by 25mg/kg i/p
[3] = tested on: hypertensive effect of 1-adrenalin; assay: 50% inhibition of hypertensive effect of 0.001 mg/kg i/v 1-adrenalin on the despinalised rat (Table II); format: in vivo; settings: iv, read-out: 50% inhibition of hypertensive effect after i/v dose of Adrenalin by mg/kg i/v
Method: (§1) also on the hypertensive effect of 0.001 mg/kg i/v 1-adrenalin and
(§2) blood pressure and the cardiac frequency of the narcosed rate and also on
(§3) the hypertensive effect of 0.001 mg/kg i.v. 1-adrenaline and noradrenaline
(§4) on the despinalised rat. The mean lethal doses for the mouse are also

[4] = tested on: duration of sleep of mice under hexobarbital; assay: Prolongation of hexobarbital sleep in mice (Table III, d); format: in vivo; settings: Mus musculus, ip; 15 mg/kg i.p.; 75 mg/kg hexobarbital; read-out: d % prolongation of sleep under hexebarbital by 15 mg/kg i.p.
Method: d = percentage prolongation of the duration of sleep of mice which had received 75 mg/kg. of hexobarbital, reckoned on the duration of the sleep of control animals.

[5] = LD50 (mean lethal dose) on the mouse (Table II); settings: in vivo
Description: as §4

[6] = tested on: systolic and diastolic blood pressure; assay: Orientating clinical test in patients (FIGS. 1 and 2); format: in vivo, 7 female and 1 male patient
[7] = tested on: defence reaction after the thermal stimulation of the tail of the mouse; assay: Analgesic effect on the mouse: delay in defence reaction after thermal stimulation of the tail (Table IV); format: in vivo; settings: po; mouse; per os; 25% delay; read-out: Delay in the defence reaction after the thermal stimulation of the tail of the mouse by 25% by mg/kg per os
Description: From Table IV below one can see the analgesic action, measured in terms of the delayed reaction during the thermal irritation of the mouse tail. The analgesically effective doses are also below those which reduce the motor behaviour, that is to say the normal movement processes (cf. Table III).
Analgesic effect on the mouse
Delay in the defence reaction after
the thermal stimulation of the tail

mouse [8] = assay: Mice falling from a rotating bar (Table III, a); format: in vivo; settings: ip, read-out: a PD50 mg/kg i.p.
Description: The central damping actions of the piperazinyl quinazolones on the mouse can be seen from Table III.
a = dose at which 50% of the mice fall from a rotating bar;

[9] = tested on: hypertensive effect of noradrenalin; assay: 50% inhibition of hypertensive effect of 0.001 mg/kg i/v noradrenalin on the despinalised rat (Table II); format: in vivo; settings: iv, read-out: 50% inhibition of hypertensive effect after i/v dose of Noradrenalin by mg/kg i/v
Method: as §1, §2, §3, §4

[10] = tested on: blood pressure and cardiac frequency of the narcotised cat; assay: Influence on the blood pressure and cardiac frequency of the narcotised cat (Table I); format: in vivo; parameters: unit not given here; settings: for Blood pressure lowered by 30% by: dose lowering blood pressure by 30%; for Blood pressure lowered by 50% by: dose lowering blood pressure by 50%
Description: (§5) Influence on the blood pressure and cardiac frequency and also
(§6) on the carotid sinus reflex of the narcotised cat
(§7) Table I provides a general summary of the influence of different piperazinylquinazolones on the blood pressure, the cardiac frequency and the carotid sinus reflex of the narcotised cat.

mouse [11] = assay: Inhibition of spontaneous motility, sedation, muscular relaxation, loss of grip on horizontal wire mesh in mice (Table III, b); format: in vivo; settings: po, dose at which an average of 50% of the mice display symptoms, read-out: b SD50 mg/kg oral
[12] = tested on: blood pressure and cardiac frequency of the narcotised rat; assay: Influence on the blood pressure and the cardiac frequency of the narcotised rat (Table II); format: in vivo; settings: iv, i/v, read-out: Blood pressure lowered by 30% by mg/kg i/v
Description: Influence on the blood pressure and the cardiac frequency of the
blood pressure and the cardiac frequency of the narcosed rate and also on […]

carotid sinus reflex = assay: Inhibition of the carotid sinus reflex of the narcotised cat (Table I); format: in vivo; parameters: unit not given here; settings: for Inhibition of the carotid sinus reflex by 30% by: dose for 30% inhibition; for Inhibition of the carotid sinus reflex by 50% by: dose for 50% inhibition
Description: as §5, §6, §7
The inhibition of the carotid sinus reflex brought about by the piperazinyl quinazolones occurs at lower doses than the spontaneous lowering of the blood pressure in the cat.

[13] = 10 and 20 mg per os, 7 female and 1 male patient

SMILES | inhibition in vivo at 25 mg/kg [2] [%] | ED50 [3] [mg/kg] | change in vivo at 15 mg/kg [4] [%] | LD50 [5] [mg/kg] | ED25 [7] [mg/kg] | ED50 (mouse [8]) [mg/kg] | ED50 [9] [mg/kg] | Blood pressure lowered by 30% by [10] | Blood pressure lowered by 50% by [10] | ED50 (mouse [11]) [mg/kg] | ED30 [12] [mg/kg] | Inhibition of the carotid sinus reflex by 30% by (carotid sinus reflex) | Inhibition of the carotid sinus reflex by 50% by (carotid sinus reflex) | further results
CCOc1ccc2nc(CN(C)C)n(C)c(=O)c2c1 [2-dimethylaminomethyl-3-methyl-6-ethoxyquinazolone-4] |  |  |  |  |  |  |  |  |  |  |  |  |  | analgesic action compared with 4-dimethylamino-1-phenyl-2,3-dimethylpyrazolone-5 [1]: comparable
COc1cc2nc(CCN3CCN(c4ccccc4OC)CC3)[nH]c(=O)c2cc1OC [Example 6, 2-(2-(1-(2-methoxyphenyl)piperazinyl-4)ethyl)-6,7-dimethoxy-4(3H)-quinazolone] | 28 | 0.036 | 79 | 600 | 1.5 | 34 | > 2.5 | 0.07 | 0.61 | 40 | 0.35 | 0.12 | 0.35 | inhibition in vivo at 12 mg/kg ([2]; 12mg/kg i/p, read-out: c % inhibition of motility in the treadwheel by 12mg/kg i/p): 19%; effect on the sensorium [6, 13]: no effect on the sensorium; lowering of the diastolic blood pressure [6, 13]: statistically significant lowering; lowering of the systolic blood pressure [6, 13]: statistically significant lowering; tolerance [6, 13]: very good tolerance; difference in the action of 10 and 20 mg. ([6]; 10 vs 20 mg, FIGS. 1 and 2): statistically confirmed; dose dependence of the lowering of the blood pressure ([6]; mean initial blood pressure 171.9 mm Hg systolic, 95.3 mm Hg diastolic, FIGS. 1 and 2): dependent upon the dose
COc1cc2nc(CCN3CCN(c4ccccc4F)CC3)[nH]c(=O)c2cc1OC [Example 14, 2-(2-(1-(2-fluorophenyl)piperazinyl-4)ethyl)-6,7-dimethoxy-4(3H)-quinazolone] | 1 | 0.058 | 68 | 150 | 2 | 61 | > 2.5 | 0.9 | > 1.6 | 180 | 0.18 | 0.04 | 0.15 | 

Source: US3984555A, “Therapeutic piperazinylalkyl-quinazolone-(4)-derivatives” (Byk Gulden Lomberg Chemische Fabrik Gesellschaft mit …, priority 1970, dated 1976)
